The results in this text go back to US11931341B2, “Compositions and methods for the treatment and prevention of muscular dystrophy” (University of Iowa Research Foundation, priority 2018, dated 2024).

Each structure is given as a SMILES string.

Common to all, as to type: in vivo
Assay [1] has as its system δSgcd−/− mouse model. The experiment in a line: Cardiac function by echocardiography in δSgcd−/− mouse model. The following applies: older-aged sgcd−/− mice, echocardiography (FIG. 3). The protocol: The effect of C21 was evaluated in a δSgcd−/− mouse model, which is a genetically modified model to imitate limb-girdle muscular dystrophy (LGMD). […] Data from conscious mice were collected during the last week of treatment. At the end of the experiment, tissues were harvested for histopathology and molecular gene expression measurements.
Echocardiography was performed in telemeter-implanted mice using Philips Sonos 5500 clinical imager in mice sedated with midazolam.

The test system of assay [2] is δSgcd−/− mouse model. The experiment in a line: Spontaneous locomotor activity by radiotelemetry in δSgcd−/− mouse model. To be noted: sgcd−/− mice, C21 0.03 mg/kg/day SC osmotic minipump for eight weeks (FIG. 2). The protocol: (§1) The effect of C21 was evaluated in a δSgcd−/− mouse model, which is a genetically modified model to imitate limb-girdle muscular dystrophy (LGMD). At 3 weeks of age, δSgcd−/− mice and control mice were administrated C21 (0.03 mg/kg/day, osmotic minipump, SC) or vehicle for eight weeks. Data from conscious mice were collected during the last week of treatment. At the end of the experiment, tissues were harvested for histopathology and molecular gene expression measurements.
(§2) A radiotelemetry probe (PC10-DSI) that enabled measurement of arterial blood pressure (BP), heart rate (HR) and locomotor activity was inserted into the thoracic aorta through the left common carotid artery under 2% isoflurane anesthesia when the mice were 9 weeks of age. When the mice reached 11-12 weeks of age, changes in BP, HR, and locomotor activity were measured over a minimum of 24 hours at a sampling rate of 500 Hz. In addition, BP was continuously recorded at a high sampling frequency of 2000 Hz for 1-2 hours, to collect data for assessment of spontaneous baroreflex sensitivity (sequence technique), sympathetic tone (HR changes with propranolol) and vagal tone (HR changes with methylatropine).

Assay [3] deals with δSgcd−/− mouse model. The experiment in a line: Autonomic function by radiotelemetry in δSgcd−/− mouse model of limb-girdle muscular dystrophy. The following applies: Sgcd−/− mice, C21 0.03 mg/kg/day SC osmotic minipump for eight weeks. The protocol: as §1, §2

`CCCCOC(=O)NS(=O)(=O)c1sc(CC(C)C)cc1-c1ccc(Cn2ccnc2)cc1` [Compound C21, N-butyloxycarbonyl-3-(4-imidazol-1-ylmethylphenyl)-5-iso-butylthiophene-2-sulfonamide]: in the assay on δSgcd−/− mouse model [1], the “cardiac function measured as end diastolic volume, end systolic volume and ejection fraction” value is on record as “improved the cardiac function”. Further, the spontaneous locomotor activity entry in the assay on δSgcd−/− mouse model [2] is “increased the spontaneous locomotor activity to levels comparative to control animals”. Moreover, the baroreflex sensitivity entry in the assay with δSgcd−/− mouse model [3] (compared to sgcd−/− placebo treated mice (FIG. 1)) is “increase”. Besides, in the assay with δSgcd−/− mouse model [3] (compared to sgcd−/− placebo treated mice, HR changes with methylatropine (FIG. 1)), the vagal tone result is recorded as “increase”. Also, the sympathetic tone entry in the assay on δSgcd−/− mouse model [3] (compared to sgcd−/− placebo treated mice, HR changes with propranolol (FIG. 1)) is reported as “decreased”.
